From PubChem BioAssay AID2060509 (Molecular Pharmacology Branch, DTP, NCI, 2025)

Tested on: 485176-168-R4-J1-PDC spheroids with HUVEC/MSC, viability
Assay: Anticancer human tumor 485176-168-R4-J1-PDC patient-derived pancreatic adenocarcinoma cell line growth inhibition [GQUAD]
Settings: for IC50: curve of first compound; for viability, T/C: stronger effect = lower value
Summary of the method: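 Tumor cells were grown as complex spheroids with HUVEC endothelial cells and mesenchymal stem cells as stroma. G-quadruplex stabilizers were combined with targeted agents over half-log dilutions from near the clinical Cmax, or from 10 microM.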
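Further: spheroids exposed to compounds for seven days before readout.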
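Wherever viability, T/C is given: percent viability relative to DMSO vehicle control wells as 100%.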

In the case of CC(C)n1c(=O)n(C)c2cnc3cc(F)c(-c4ccc(OCCCN5CCCCC5)nc4)cc3c21 + CN(C)c1ccc(Nc2c3ccc(NC(=O)CCN4CCCC4)cc3nc3cc(NC(=O)CCN4CCCC4)ccc23)cc1, the IC50 (second compound 0.0316 µM) is reported as greater than 10 µM, the IC50 (second compound 0.1 µM) is reported as greater than 10 µM and the IC50 (second compound 0.316 µM) is reported as greater than 10 µM. The IC50 (second compound 1 µM) was greater than 10 µM, the IC50 (second compound 3.16 µM) was greater than 10 µM and the IC50 (second compound 10 µM) was 5.42 µM. It also gave a viability, T/C (second compound 0.0316 µM, first compound 0.0316 µM) of 89.8%, a viability, T/C (second compound 0.0316 µM, first compound 0.1 µM) of 81.3% and a viability, T/C (second compound 0.0316 µM, first compound 0.316 µM) of 104%. It also gave a viability, T/C (second compound 0.0316 µM, first compound 1 µM) of 89.7%, a viability, T/C (second compound 0.0316 µM, first compound 3.16 µM) of 93.3% and a viability, T/C (second compound 0.0316 µM, first compound 10 µM) of 71.7%. For the same compound, the viability, T/C (second compound 0.1 µM, first compound 0.0316 µM) was 92.7%, the viability, T/C (second compound 0.1 µM, first compound 0.1 µM) was 91.1% and the viability, T/C (second compound 0.1 µM, first compound 0.316 µM) was 104%. It also gave a viability, T/C (second compound 0.1 µM, first compound 1 µM) of 95.7%, a viability, T/C (second compound 0.1 µM, first compound 3.16 µM) of 94.7% and a viability, T/C (second compound 0.1 µM, first compound 10 µM) of 68.4%. For the same compound, the viability, T/C (second compound 0.316 µM, first compound 0.0316 µM) was 111%, the viability, T/C (second compound 0.316 µM, first compound 0.1 µM) was 90.4% and the viability, T/C (second compound 0.316 µM, first compound 0.316 µM) was 94.7%. For the same compound, the viability, T/C (second compound 0.316 µM, first compound 1 µM) was 98.2%, the viability, T/C (second compound 0.316 µM, first compound 3.16 µM) was 94.5% and the viability, T/C (second compound 0.316 µM, first compound 10 µM) was 82.1%. The viability, T/C (second compound 1 µM, first compound 0.0316 µM) was 111%, the viability, T/C (second compound 1 µM, first compound 0.1 µM) was 95.9% and the viability, T/C (second compound 1 µM, first compound 0.316 µM) was 80.6%. It also gave a viability, T/C (second compound 1 µM, first compound 1 µM) of 79.7%, a viability, T/C (second compound 1 µM, first compound 3.16 µM) of 71.2% and a viability, T/C (second compound 1 µM, first compound 10 µM) of 77.8%. For the same compound, the viability, T/C (second compound 3.16 µM, first compound 0.0316 µM) was 81.6%, the viability, T/C (second compound 3.16 µM, first compound 0.1 µM) was 91.7% and the viability, T/C (second compound 3.16 µM, first compound 0.316 µM) was 86.6%. It also gave a viability, T/C (second compound 3.16 µM, first compound 1 µM) of 85.2%, a viability, T/C (second compound 3.16 µM, first compound 3.16 µM) of 79.1% and a viability, T/C (second compound 3.16 µM, first compound 10 µM) of 59.9%. For the same compound, the viability, T/C (second compound 10 µM, first compound 0.0316 µM) was 81.7%, the viability, T/C (second compound 10 µM, first compound 0.1 µM) was 65.7% and the viability, T/C (second compound 10 µM, first compound 0.316 µM) was 71.5%. For the same compound, the viability, T/C (second compound 10 µM, first compound 1 µM) was 64.5%, the viability, T/C (second compound 10 µM, first compound 3.16 µM) was 64.6% and the viability, T/C (second compound 10 µM, first compound 10 µM) was 36.3%.
